Experimental data from PMC2801349 (Bioorganic & medicinal chemistry letters, 2009).
pIC50: −log10 of the molar value.

What was measured:
mGlu2 = mGlu2 (Homo sapiens, UniProt Q14416); assay: Selectivity versus additional mGlus; assay type: cell-based
mGlu3 = mGlu3 (Homo sapiens, UniProt Q14832); assay: Selectivity versus additional mGlus; assay type: cell-based
mGlu4 = mGlu4 (Homo sapiens, UniProt Q14833); assay: Selectivity versus additional mGlus; assay type: cell-based
mGlu8 = mGlu8 (Homo sapiens, UniProt O00222); assay: Selectivity versus additional mGlus; assay type: cell-based
mGlu7 = mGlu7 (Homo sapiens, UniProt Q14831); assay: Selectivity versus additional mGlus; assay type: cell-based
rat mGlu5 = rat mGlu5 (Rattus norvegicus, UniProt P31424); assay: Calcium mobilization mGlu5 assay; assay type: cell-based; conditions: for fold reduction of mGlu5 potency, secondary amine to ether: 26 relative to 13, 29 relative to 4
EGFR = conditions: read-out: EGFR autophosphorylation IC50; A431 cells; cited from earlier work

Chain of mGlu8 (O00222 34-908): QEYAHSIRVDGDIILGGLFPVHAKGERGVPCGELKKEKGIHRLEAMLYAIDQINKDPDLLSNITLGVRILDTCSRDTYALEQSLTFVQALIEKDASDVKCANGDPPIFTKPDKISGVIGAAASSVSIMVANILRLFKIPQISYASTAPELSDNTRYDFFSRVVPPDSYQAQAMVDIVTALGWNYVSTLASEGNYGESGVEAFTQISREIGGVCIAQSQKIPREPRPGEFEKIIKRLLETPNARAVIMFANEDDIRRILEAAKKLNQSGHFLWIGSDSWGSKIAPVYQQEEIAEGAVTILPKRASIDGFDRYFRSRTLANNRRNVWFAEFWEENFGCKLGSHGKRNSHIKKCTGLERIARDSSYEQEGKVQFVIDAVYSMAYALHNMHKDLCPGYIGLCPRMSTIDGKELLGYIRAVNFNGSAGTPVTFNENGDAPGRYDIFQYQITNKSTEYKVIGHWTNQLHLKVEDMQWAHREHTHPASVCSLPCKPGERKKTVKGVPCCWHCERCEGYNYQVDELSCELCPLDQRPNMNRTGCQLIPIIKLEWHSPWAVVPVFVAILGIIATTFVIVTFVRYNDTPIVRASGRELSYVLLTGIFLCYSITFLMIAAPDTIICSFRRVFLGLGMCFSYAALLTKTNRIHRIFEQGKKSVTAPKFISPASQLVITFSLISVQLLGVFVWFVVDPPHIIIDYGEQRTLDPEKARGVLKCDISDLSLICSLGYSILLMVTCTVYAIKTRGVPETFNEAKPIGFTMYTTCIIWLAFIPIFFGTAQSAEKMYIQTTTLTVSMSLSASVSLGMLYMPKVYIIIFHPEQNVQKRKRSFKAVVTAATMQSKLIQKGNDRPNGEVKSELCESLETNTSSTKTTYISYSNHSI
Chain of mGlu4 (Q14833 33-912): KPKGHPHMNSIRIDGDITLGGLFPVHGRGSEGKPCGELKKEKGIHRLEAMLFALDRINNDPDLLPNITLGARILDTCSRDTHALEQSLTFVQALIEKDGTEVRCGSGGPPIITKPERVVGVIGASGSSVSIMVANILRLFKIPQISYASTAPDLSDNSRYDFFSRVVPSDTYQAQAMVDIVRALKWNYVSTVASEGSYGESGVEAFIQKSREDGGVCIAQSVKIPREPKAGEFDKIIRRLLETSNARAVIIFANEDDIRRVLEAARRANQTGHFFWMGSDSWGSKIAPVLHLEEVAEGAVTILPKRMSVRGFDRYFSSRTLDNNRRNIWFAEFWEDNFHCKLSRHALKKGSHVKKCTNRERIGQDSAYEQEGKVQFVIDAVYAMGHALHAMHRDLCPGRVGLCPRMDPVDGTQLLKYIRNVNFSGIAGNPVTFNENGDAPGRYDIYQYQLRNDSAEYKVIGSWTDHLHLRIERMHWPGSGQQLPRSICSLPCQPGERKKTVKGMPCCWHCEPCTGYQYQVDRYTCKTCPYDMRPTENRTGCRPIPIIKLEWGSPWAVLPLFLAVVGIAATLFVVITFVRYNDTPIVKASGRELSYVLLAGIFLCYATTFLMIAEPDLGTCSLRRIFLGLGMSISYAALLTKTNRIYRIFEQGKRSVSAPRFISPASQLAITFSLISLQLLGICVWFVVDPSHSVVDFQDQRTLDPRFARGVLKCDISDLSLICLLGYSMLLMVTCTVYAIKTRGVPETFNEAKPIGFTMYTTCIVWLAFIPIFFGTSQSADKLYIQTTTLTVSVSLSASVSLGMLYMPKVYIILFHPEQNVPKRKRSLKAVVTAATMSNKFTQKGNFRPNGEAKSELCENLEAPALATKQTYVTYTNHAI
Chain of rat mGlu5 (P31424 21-1203): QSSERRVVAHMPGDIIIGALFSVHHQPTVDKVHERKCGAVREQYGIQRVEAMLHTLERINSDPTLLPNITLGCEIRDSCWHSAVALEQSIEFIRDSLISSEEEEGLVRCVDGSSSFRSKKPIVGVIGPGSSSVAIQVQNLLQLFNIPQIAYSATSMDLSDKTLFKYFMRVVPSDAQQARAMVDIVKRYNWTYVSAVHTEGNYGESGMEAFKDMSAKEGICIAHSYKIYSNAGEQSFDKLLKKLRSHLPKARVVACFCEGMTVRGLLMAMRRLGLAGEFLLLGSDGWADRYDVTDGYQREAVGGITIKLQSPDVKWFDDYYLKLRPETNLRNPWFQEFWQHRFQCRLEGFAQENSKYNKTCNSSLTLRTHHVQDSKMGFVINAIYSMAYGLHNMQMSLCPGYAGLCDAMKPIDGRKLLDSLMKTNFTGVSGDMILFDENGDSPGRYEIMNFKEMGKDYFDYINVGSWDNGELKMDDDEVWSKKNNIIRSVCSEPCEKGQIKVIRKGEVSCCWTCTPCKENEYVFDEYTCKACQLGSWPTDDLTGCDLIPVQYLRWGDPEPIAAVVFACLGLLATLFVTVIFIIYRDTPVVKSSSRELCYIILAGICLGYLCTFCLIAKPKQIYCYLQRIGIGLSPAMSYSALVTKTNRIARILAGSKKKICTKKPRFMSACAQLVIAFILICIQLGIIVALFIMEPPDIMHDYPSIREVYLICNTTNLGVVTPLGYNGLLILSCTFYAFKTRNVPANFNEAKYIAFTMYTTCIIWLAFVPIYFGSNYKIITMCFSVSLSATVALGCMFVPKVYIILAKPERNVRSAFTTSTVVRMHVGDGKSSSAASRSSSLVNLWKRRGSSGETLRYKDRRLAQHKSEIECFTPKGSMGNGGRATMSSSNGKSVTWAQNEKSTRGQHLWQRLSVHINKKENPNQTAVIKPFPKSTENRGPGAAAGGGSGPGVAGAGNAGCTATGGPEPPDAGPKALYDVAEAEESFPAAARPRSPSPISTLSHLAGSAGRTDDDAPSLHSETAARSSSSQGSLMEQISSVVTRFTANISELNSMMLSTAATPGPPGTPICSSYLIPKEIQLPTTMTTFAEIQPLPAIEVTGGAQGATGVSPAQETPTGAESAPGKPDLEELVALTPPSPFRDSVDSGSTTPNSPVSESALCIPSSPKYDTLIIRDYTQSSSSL
Chain of mGlu2 (Q14416 19-872): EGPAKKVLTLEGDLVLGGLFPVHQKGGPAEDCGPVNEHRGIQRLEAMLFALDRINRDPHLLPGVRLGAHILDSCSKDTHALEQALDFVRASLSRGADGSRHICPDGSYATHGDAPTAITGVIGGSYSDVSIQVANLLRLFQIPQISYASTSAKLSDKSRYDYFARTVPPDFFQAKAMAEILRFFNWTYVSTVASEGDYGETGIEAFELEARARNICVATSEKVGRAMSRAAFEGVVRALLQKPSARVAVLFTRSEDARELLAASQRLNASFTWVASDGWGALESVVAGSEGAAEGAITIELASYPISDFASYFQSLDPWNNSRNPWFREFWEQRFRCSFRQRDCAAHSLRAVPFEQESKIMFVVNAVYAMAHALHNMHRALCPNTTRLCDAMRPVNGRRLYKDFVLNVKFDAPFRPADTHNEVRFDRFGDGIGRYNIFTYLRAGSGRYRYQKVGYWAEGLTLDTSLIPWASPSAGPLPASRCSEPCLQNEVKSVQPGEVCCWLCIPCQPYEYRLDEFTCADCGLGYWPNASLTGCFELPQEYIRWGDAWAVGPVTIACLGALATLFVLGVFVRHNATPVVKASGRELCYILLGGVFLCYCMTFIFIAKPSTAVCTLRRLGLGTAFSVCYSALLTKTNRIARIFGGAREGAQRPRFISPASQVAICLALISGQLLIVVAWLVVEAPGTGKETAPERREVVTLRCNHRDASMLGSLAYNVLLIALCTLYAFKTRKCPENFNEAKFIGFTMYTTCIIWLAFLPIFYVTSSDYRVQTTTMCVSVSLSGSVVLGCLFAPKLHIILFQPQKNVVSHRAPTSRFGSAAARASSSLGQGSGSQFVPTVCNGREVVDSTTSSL
Chain of mGlu3 (Q14832 23-879): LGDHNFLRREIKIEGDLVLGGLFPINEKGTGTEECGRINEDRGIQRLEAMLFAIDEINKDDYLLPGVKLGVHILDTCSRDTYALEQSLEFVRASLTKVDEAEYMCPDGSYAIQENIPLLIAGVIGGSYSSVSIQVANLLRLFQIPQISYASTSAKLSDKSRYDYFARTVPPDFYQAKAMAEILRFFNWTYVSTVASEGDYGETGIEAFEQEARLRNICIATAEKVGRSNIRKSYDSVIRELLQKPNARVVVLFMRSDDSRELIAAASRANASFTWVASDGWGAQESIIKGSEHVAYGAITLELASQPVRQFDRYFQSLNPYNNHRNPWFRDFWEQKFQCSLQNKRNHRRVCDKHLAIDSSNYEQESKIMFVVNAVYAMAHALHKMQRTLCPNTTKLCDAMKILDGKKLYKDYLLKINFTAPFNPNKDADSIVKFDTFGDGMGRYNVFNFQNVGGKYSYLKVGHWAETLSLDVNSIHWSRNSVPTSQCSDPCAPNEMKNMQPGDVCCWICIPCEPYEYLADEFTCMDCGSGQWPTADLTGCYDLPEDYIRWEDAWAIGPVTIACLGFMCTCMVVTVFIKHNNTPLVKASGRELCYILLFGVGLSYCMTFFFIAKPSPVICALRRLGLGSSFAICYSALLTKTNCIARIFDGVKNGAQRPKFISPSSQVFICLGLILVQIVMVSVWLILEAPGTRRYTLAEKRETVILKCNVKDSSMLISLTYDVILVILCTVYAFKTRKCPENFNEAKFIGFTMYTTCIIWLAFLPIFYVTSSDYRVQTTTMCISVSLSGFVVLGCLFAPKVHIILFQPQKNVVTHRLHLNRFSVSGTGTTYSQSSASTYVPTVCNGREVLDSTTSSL

SMILES | activity against mGlu2 (mGlu2) | activity against mGlu3 (mGlu3) | activity against mGlu4 (mGlu4) | activity against mGlu8 (mGlu8) | activity against mGlu7 (mGlu7) | further results
Clc1cccc(Nc2ncnc3ccc(Br)cc23)c1 [Compound 1] | inactive | inactive | inactive | inactive | inactive | 
FC(F)(F)c1cccc(Nc2ncnc3ccc(Br)cc23)c1 [Compound 6] |  |  |  |  |  | fold less potent at mGlu5 than 5 (rat mGlu5; relative to 3-methylaniline 5): 7 fold
Clc1cccc(Nc2ncnc3ccc(Cl)cc23)c1 [Compound 9] |  |  |  |  |  | pIC50 (EGFR): 5.57
Clc1ccc2ncnc(Nc3cccc(Br)c3)c2c1 [Compound 13] | inactive | inactive | inactive | inactive | inactive | 
Brc1cccc(Nc2nccc3ccc(Br)cc23)c1 [Compound 15] |  |  |  |  |  | fold reduction of mGlu5 activity relative to 4 (rat mGlu5; relative to 6-bromoquinazoline comparator 4): approximately 25 fold
Clc1ccc2ncnc(Oc3cccc(Br)c3)c2c1 [Compound 26] |  |  |  |  |  | fold reduction of mGlu5 potency, secondary amine to ether (rat mGlu5): more than 50 fold
Brc1cccc(Oc2ncnc3ccc(Br)cc23)c1 [Compound 29] |  |  |  |  |  | fold reduction of mGlu5 potency, secondary amine to ether (rat mGlu5): more than 50 fold
Fc1ccc2ncnc(Nc3cccc(Br)c3)c2c1 [Compound 32] | inactive | inactive | inactive | inactive | inactive | 
CCc1cccc(Nc2ncnc3ccc(F)cc23)c1 [Compound 36] |  |  |  |  |  | % Glu max (rat mGlu5; amplitude of response in the presence of 30 μM test compound as a percentage of maximal response (100 μM glutamate), average of n ≥ 3): weak potentiator
